# Values of other authors as cited in patent US20010014678A1, “Nicotine addiction treatment” (CARY MEDICAL CORPORATION, priority 1997, published 2001).
compound,measurement,setting,value
CN1CCCC1c1cccnc1 (centres unmarked) [nicotine],metabolic half-life,in vivo,roughly 2 hours
same,nicotine in venous blood,provided by one cigarette,5 to 30 ng/mL
